Assays:
Rattus norvegicus [1] = assay: Anti-inflammatory activity in Rattus norvegicus (rat) assessed as inhibition of carrageenan-induced paw edema at 20 mg/kg, po measured at 2 hr post carrageenan-challenge (reference value: 5.7+/- 0.32%); format: functional
Rattus norvegicus [2] = assay: Anti-inflammatory activity in Rattus norvegicus (rat) assessed as inhibition of carrageenan-induced paw edema at 10 mg/kg, po measured at 2 hr post carrageenan-challenge (reference value: 5.7+/- 0.32%); format: functional
Mus musculus [3] = assay: Analgesic activity in Mus musculus Wistar albino (mouse) at 10 mg/kg, po after 2 hr by tail-flick test (reference value: 4 +/- 0.59%); format: functional
Mus musculus [4] = assay: Analgesic activity in Mus musculus Wistar albino (mouse) at 20 mg/kg, po after 2 hr by tail-flick test (reference value: 4 +/- 0.59%); format: functional
Rattus norvegicus [5] = assay: Anti-inflammatory activity in Rattus norvegicus (rat) assessed as inhibition of carrageenan-induced paw edema at 10 mg/kg, po measured at 3 hr post carrageenan-challenge (reference value: 3.2 +/- 0.93%); format: functional
Rattus norvegicus [6] = assay: Anti-inflammatory activity in Rattus norvegicus (rat) assessed as inhibition of carrageenan-induced paw edema at 20 mg/kg, po measured at 1 hr post carrageenan-challenge (reference value: 6.1 +/- 0.27%); format: functional
Rattus norvegicus [7] = assay: Anti-inflammatory activity in Rattus norvegicus (rat) assessed as inhibition of carrageenan-induced paw edema at 10 mg/kg, po measured at 30 min post carrageenan-challenge (reference value: 5.1 +/- 0.29%); format: functional; conditions: 0.5 h
Rattus norvegicus [8] = assay: Anti-inflammatory activity in Rattus norvegicus (rat) assessed as inhibition of carrageenan-induced paw edema at 20 mg/kg, po measured at 3 hr post carrageenan-challenge (reference value: 3.2 +/- 0.93%); format: functional
Rattus norvegicus [9] = assay: Anti-inflammatory activity in Rattus norvegicus (rat) assessed as inhibition of carrageenan-induced paw edema at 10 mg/kg, po measured at 1 hr post carrageenan-challenge (reference value: 6.1 +/- 0.27%); format: functional
Mus musculus [10] = assay: Analgesic activity in Mus musculus Wistar albino (mouse) at 20 mg/kg, po after 3 hr by tail-flick test (reference value: 4 +/- 0.91%); format: functional
Rattus norvegicus [11] = assay: Anti-inflammatory activity in Rattus norvegicus (rat) assessed as inhibition of carrageenan-induced paw edema at 20 mg/kg, po measured at 30 min post carrageenan-challenge (reference value: 5.1 +/- 0.29%); format: functional; conditions: 0.5 h
Rattus norvegicus [12] = assay: Gastrointestinal toxicity in Rattus norvegicus Wistar albino (rat) assessed as ulcer index at 20 mg/kg, ip administered QD for 3 days measured on day 4 (reference value: 0.15 +/- 0.32); format: organism-based; parameters: dose 20 mg/kg, route intraperitoneal; conditions: in vivo, 72 h
Mus musculus [13] = assay: Analgesic activity in Mus musculus Wistar albino (mouse) at 20 mg/kg, po after 1 hr by tail-flick test (reference value: 6 +/- 0.49%); format: functional
Mus musculus [14] = assay: Analgesic activity in Mus musculus Wistar albino (mouse) at 10 mg/kg, po after 3 hr by tail-flick test (reference value: 4 +/- 0.91%); format: functional
Mus musculus [15] = assay: Analgesic activity in Mus musculus Wistar albino (mouse) at 10 mg/kg, po after 30 min by tail-flick test (reference value: 2 +/- 0.35%); format: functional
Mus musculus [16] = assay: Analgesic activity in Mus musculus Wistar albino (mouse) at 10 mg/kg, po after 1 hr by tail-flick test (reference value: 6 +/- 0.49%); format: functional
Mus musculus [17] = assay: Analgesic activity in Mus musculus Wistar albino (mouse) at 20 mg/kg, po after 30 min by tail-flick test (reference value: 2 +/- 0.35%); format: functional

| Structure (SMILES) | inhibition in vivo at 20 mg/kg (Rattus norvegicus [1]) | inhibition in vivo at 10 mg/kg (Rattus norvegicus [2]) | Activity (Mus musculus [3]) | Activity (Mus musculus [4]) | inhibition in vivo at 10 mg/kg (Rattus norvegicus [5]) | inhibition in vivo at 20 mg/kg (Rattus norvegicus [6]) | inhibition in vivo at 10 mg/kg (Rattus norvegicus [7]) | inhibition in vivo at 20 mg/kg (Rattus norvegicus [8]) | inhibition in vivo at 10 mg/kg (Rattus norvegicus [9]) | Activity (Mus musculus [10]) | inhibition in vivo at 20 mg/kg (Rattus norvegicus [11]) | UI (Rattus norvegicus [12]) | Activity (Mus musculus [13]) | Activity (Mus musculus [14]) | Activity (Mus musculus [15]) | Activity (Mus musculus [16]) | Activity (Mus musculus [17]) |
| --- | --- | --- | --- | --- | --- | --- | --- | --- | --- | --- | --- | --- | --- | --- | --- | --- | --- |
| CCN(CC)C(=S)Nn1c(SC)nc2ccccc2c1=O | 62% | 40% | 56% | 67% |  |  |  |  |  |  |  |  |  |  |  |  |  |
| O=c1c2ccccc2nc(NN=C2CCCCC2)n1Cc1ccccc1 | 58% | 45% | 54% | 61% | 25% | 52% | 36% | 32% | 38% | 41% | 45% | 0.59 | 58% | 34% | 42% | 46% | 51% |
| C/C(=N\Nc1nc2ccccc2c(=O)n1Cc1ccccc1)c1ccccc1 | 58% | 46% | 57% | 69% | 27% | 53% | 40% | 33% | 41% | 37% | 48% | 0.6 | 62% | 30% | 45% | 47% | 57% |
| O=C1Nc2ccccc2/C1=N\Nc1nc2ccccc2c(=O)n1Cc1ccccc1 | 51% | 42% | 48% | 61% | 25% | 45% | 36% | 32% | 38% | 35% | 40% | 0.62 | 57% | 30% | 45% | 46% | 52% |
| O=c1c2ccccc2nc(N/N=C/c2ccccc2)n1Cc1ccccc1 | 47% | 40% | 48% | 59% | 27% | 45% | 35% | 35% | 39% | 41% | 41% | 0.64 | 59% | 31% | 45% | 48% | 51% |
| O=c1c2ccccc2nc(N/N=C/c2ccccc2Cl)n1Cc1ccccc1 | 42% | 35% | 41% | 53% | 26% | 38% | 30% | 31% | 32% | 35% | 38% | 0.86 | 49% | 29% | 34% | 37% | 46% |
| O=c1c2ccccc2nc(N/N=C/c2ccc(Cl)cc2)n1Cc1ccccc1 | 49% | 36% | 47% | 54% | 23% | 44% | 34% | 29% | 36% | 36% | 40% | 0.89 | 51% | 30% | 38% | 36% | 49% |
| CC(=O)Oc1ccccc1C(=O)O [ASPIRIN] |  |  |  |  |  |  |  |  |  |  |  | 1.73 |  |  |  |  |  |
